These results are taken from ChEMBL document CHEMBL2150967, “Novel Quinolinones as Activators of AMP Activated Protein Kinase: Patent Highlight” (ACS Med Chem Lett, 2012).

Experiment [1] concerns the target AMP-activated protein kinase, AMPK (Homo sapiens) (UniProt P54646+O43741+P54619+Q9UGJ0+Q9Y478+Q13131+Q9UGI9). Kind of experiment: (§1) Activation of recombinant human AMPK by FRET assay.
Experiment [2] has as its target AMP-activated protein kinase, AMPK. The description is as §1.

The term pEC50 denotes the EC50 on a negative log10 scale, so that one unit is a factor of ten.

SMILES strings stand for the structures.

On to `COc1cccc(-c2ccc(-c3cc4c(O)c(-n5cccn5)c(=O)[nH]c4cc3Cl)cc2)c1`, for which, in experiment [1], the pEC200 was less than 5. For the same compound, the pEC50 in experiment [2] was less than 5.5.

As to `Cc1cc(-c2c(O)c3cc(-c4ccc(N(C)C)cc4)c(Cl)cc3[nH]c2=O)no1`, in experiment [1], the pEC200 was less than 5. Also, in experiment [2], the pEC50 is on record as less than 5.5.

`Cc1ccn(-c2c(O)c3cc(-c4ccc(N5CCCC5)cc4)c(Cl)cc3[nH]c2=O)n1`: in experiment [1], the pEC200 was less than 5. The pEC50 in experiment [2] is listed as less than 5.5.

On to `Cc1nc(-c2c(O)c3cc(-c4ccc(N(C)C)cc4)c(Cl)cc3[nH]c2=O)c(C)s1`, for which, in experiment [1], the pEC200 is less than 5. For the same compound, in experiment [2], the pEC50 is listed as less than 5.5.

`Cc1nc(-c2c(O)c3cc(-c4ccc(N5CCCCC5)cc4)c(Cl)cc3[nH]c2=O)cs1`: the pEC200 in experiment [1] was less than 5. Moreover, the pEC50 in experiment [2] is less than 5.5.
